# Reference: patent US20100297015A1, “CANCER BIOMARKER AND USES THEREOF” (priority 2007, published 2010)
# Experiments:
# GTPCH = settings: competes with GTP, a substrate for GTPCH (Gross and Levi 1992); cited from earlier work
# human GTPCH = assay: GCH1 siRNA transfection of GCHtet-off and MCF7 cells, expression of GTPCH and phosphor-Akt; format: cell-based; settings: 10 nM siRNA, Lipofactamine RNAiMAX, 48 hours
# Experimental: GCHtet-off cells (described above) and MCF7 cells (4×10^5/well) were cultured in a 24-well plate and transfected with 10 nM of GCH1 siRNA (comprising the sequences of Seq ID Nos: 1 and 2) and scramble siRNA (SCR), respectively using Lipofactamine RNAiMAX. After 48 hours, the cells were harvested and the expression of human GTPCH, phosphor-Akt and GAPDH was determined. The results are illustrated in FIG. 8. A correlation between human GTPCH expression and phosphor-Akt was observed.
Molecule,GTPCH protein activity (GTPCH),Akt phosphorylation (human GTPCH),GTPCH expression (human GTPCH)
"Nc1cc(O)nc(N)n1 [DAHP, 2,4-diamino-6-hydroxypyrimidine]",inhibits GTPCH protein activity,,
"GCH1 siRNA: siRNA comprising the sequences of Seq ID Nos: 1 and 2, designed to reduce GTPCH expression (chain 1 CCUAAACGAUGCUAUAUUUTT; chain 2 AAAUAUAGCAUCGUUUAGGTT; chemistry not given here)",,Reduction,Downregulated
